Reference: the supplement of paper PMC10307832

Legend:
Experiment in all cases: relative viability (nuclei count vs DMSO), 5 days (fraction); higher = more cells survive
[1] = test system: RERF-LC-KJ
Method in brief: (§1)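 Relative viability is defined as nuclei in treated wells over nuclei in vehicle wells. Duplicate plates were run and medians reported. Lung cancer cell lines in 1536-well plates were dosed by pin tool one day after seeding, with one drug or with a fixed anchor-drug dose plus five library-drug doses (not always all listed) in √10 steps, and nuclei were counted after 5 days.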

[2] = test system: SW 900
Method in brief: as §1

[3] = test system: NCI-H1651
Method in brief: as §1

[4] = test system: NCI-H460
Method in brief: as §1

[5] = test system: PC-14
Method in brief: as §1

[6] = test system: LCLC-103H
Method in brief: as §1

[7] = test system: COR-L23
Method in brief: as §1

[8] = test system: LCLC-97TM1
Method in brief: as §1

[9] = test system: NCI-H1650
Method in brief: as §1

[10] = test system: NCI-H1793
Method in brief: as §1

[11] = test system: SW 1573
Method in brief: as §1

[12] = test system: LK-2
Method in brief: as §1

[13] = test system: NCI-H2347
Method in brief: as §1

[14] = test system: NCI-H650
Method in brief: as §1

[15] = test system: NCI-H727
Method in brief: as §1

[16] = test system: PC-3 [JPC-3]
Method in brief: as §1

[17] = test system: 201T
Method in brief: as §1

[18] = test system: A-427
Method in brief: as §1

[19] = test system: LU99A
Method in brief: as §1

[20] = test system: NCI-H23
Method in brief: as §1

[21] = test system: H3255
Method in brief: as §1

[22] = test system: NCI-H838
Method in brief: as §1

[23] = test system: NCI-H1944
Method in brief: as §1

## Clc1ccc(Nc2nnc(Cc3ccncc3)c3ccccc23)cc1 [Vatalanib] + Cc1cc(Nc2cc(N3CCN(C)CC3)nc(Sc3ccc(NC(=O)C4CC4)cc3)n2)n[nH]1 [Tozasertib] (partner 0.1 µM)
[1]; first compound 0.04 µM
  relative viability: 0.602
[1]; first compound 0.1265 µM
  relative viability: 0.555
[1]; first compound 0.4 µM
  relative viability: 0.511
[1]; first compound 1.265 µM
  relative viability: 0.454
[1]; first compound 4 µM
  relative viability: 0.436
[2]; first compound 0.1265 µM
  relative viability: 0.563
[2]; first compound 0.4 µM
  relative viability: 0.68
[2]; first compound 1.265 µM
  relative viability: 0.482
[2]; first compound 4 µM
  relative viability: 0.572
[3]; first compound 0.04 µM
  relative viability: 0.845
[3]; first compound 0.1265 µM
  relative viability: 0.668
[3]; first compound 0.4 µM
  relative viability: 0.701
[3]; first compound 1.265 µM
  relative viability: 0.667
[3]; first compound 4 µM
  relative viability: 0.629
[4]; first compound 0.04 µM
  relative viability: 0.656
[4]; first compound 0.1265 µM
  relative viability: 0.299
[4]; first compound 1.265 µM
  relative viability: 0.296
[4]; first compound 4 µM
  relative viability: 0.397
[5]; first compound 0.04 µM
  relative viability: 0.625
[5]; first compound 0.1265 µM
  relative viability: 0.523
[5]; first compound 1.265 µM
  relative viability: 0.51
[5]; first compound 4 µM
  relative viability: 0.592
[6]; first compound 0.04 µM
  relative viability: 0.482
[6]; first compound 0.1265 µM
  relative viability: 0.518
[6]; first compound 0.4 µM
  relative viability: 0.532
[6]; first compound 1.265 µM
  relative viability: 0.503
[6]; first compound 4 µM
  relative viability: 0.502
[7]; first compound 0.04 µM
  relative viability: 0.232
[7]; first compound 0.1265 µM
  relative viability: 0.194
[7]; first compound 0.4 µM
  relative viability: 0.206
[7]; first compound 1.265 µM
  relative viability: 0.168
[7]; first compound 4 µM
  relative viability: 0.173
[8]; first compound 0.04 µM
  relative viability: 0.301
[8]; first compound 0.1265 µM
  relative viability: 0.196
[8]; first compound 0.4 µM
  relative viability: 0.237
[8]; first compound 1.265 µM
  relative viability: 0.21
[8]; first compound 4 µM
  relative viability: 0.263
[9]; first compound 0.04 µM
  relative viability: 0.398
[9]; first compound 0.1265 µM
  relative viability: 0.246
[9]; first compound 0.4 µM
  relative viability: 0.438
[9]; first compound 1.265 µM
  relative viability: 0.37
[9]; first compound 4 µM
  relative viability: 0.425
[10]; first compound 0.04 µM
  relative viability: 0.342
[10]; first compound 0.1265 µM
  relative viability: 0.341
[10]; first compound 0.4 µM
  relative viability: 0.364
[10]; first compound 1.265 µM
  relative viability: 0.276
[10]; first compound 4 µM
  relative viability: 0.329
[11]; first compound 0.04 µM
  relative viability: 0.145
[11]; first compound 0.1265 µM
  relative viability: 0.165
[11]; first compound 0.4 µM
  relative viability: 0.215
[11]; first compound 1.265 µM
  relative viability: 0.257
[11]; first compound 4 µM
  relative viability: 0.153
[12]; first compound 0.04 µM
  relative viability: 0.164
[12]; first compound 0.1265 µM
  relative viability: 0.161
[12]; first compound 0.4 µM
  relative viability: 0.173
[12]; first compound 1.265 µM
  relative viability: 0.182
[12]; first compound 4 µM
  relative viability: 0.203
[13]; first compound 0.04 µM
  relative viability: 0.462
[13]; first compound 0.1265 µM
  relative viability: 0.579
[13]; first compound 0.4 µM
  relative viability: 0.678
[13]; first compound 1.265 µM
  relative viability: 0.61
[13]; first compound 4 µM
  relative viability: 0.55
[14]; first compound 0.04 µM
  relative viability: 0.81
[14]; first compound 0.1265 µM
  relative viability: 0.655
[14]; first compound 1.265 µM
  relative viability: 0.718
[14]; first compound 4 µM
  relative viability: 0.631
[15]; first compound 0.04 µM
  relative viability: 0.6
[15]; first compound 0.1265 µM
  relative viability: 0.658
[15]; first compound 0.4 µM
  relative viability: 0.472
[15]; first compound 1.265 µM
  relative viability: 0.624
[15]; first compound 4 µM
  relative viability: 0.533
[16]; first compound 0.04 µM
  relative viability: 0.876
[16]; first compound 0.1265 µM
  relative viability: 0.864
[16]; first compound 0.4 µM
  relative viability: 0.873
[16]; first compound 1.265 µM
  relative viability: 0.835
[16]; first compound 4 µM
  relative viability: 0.876
[17]; first compound 0.04 µM
  relative viability: 0.932
[17]; first compound 0.1265 µM
  relative viability: 0.943
[17]; first compound 0.4 µM
  relative viability: 0.985
[17]; first compound 1.265 µM
  relative viability: 0.896
[17]; first compound 4 µM
  relative viability: 0.916
[18]; first compound 0.04 µM
  relative viability: 0.224
[18]; first compound 0.1265 µM
  relative viability: 0.21
[18]; first compound 0.4 µM
  relative viability: 0.232
[18]; first compound 1.265 µM
  relative viability: 0.206
[18]; first compound 4 µM
  relative viability: 0.2
[19]; first compound 0.04 µM
  relative viability: 0.282
[19]; first compound 0.1265 µM
  relative viability: 0.289
[19]; first compound 0.4 µM
  relative viability: 0.305
[19]; first compound 1.265 µM
  relative viability: 0.266
[19]; first compound 4 µM
  relative viability: 0.286
[20]; first compound 0.04 µM
  relative viability: 0.435
[20]; first compound 0.1265 µM
  relative viability: 0.373
[20]; first compound 0.4 µM
  relative viability: 0.364
[20]; first compound 1.265 µM
  relative viability: 0.314
[20]; first compound 4 µM
  relative viability: 0.578
[21]; first compound 0.04 µM
  relative viability: 0.626
[21]; first compound 0.1265 µM
  relative viability: 0.619
[21]; first compound 0.4 µM
  relative viability: 0.637
[21]; first compound 1.265 µM
  relative viability: 0.75
[21]; first compound 4 µM
  relative viability: 0.63
[22]; first compound 0.04 µM
  relative viability: 0.249
[22]; first compound 0.1265 µM
  relative viability: 0.28
[22]; first compound 0.4 µM
  relative viability: 0.302
[22]; first compound 1.265 µM
  relative viability: 0.228
[22]; first compound 4 µM
  relative viability: 0.295
[23]; first compound 0.04 µM
  relative viability: 0.267
[23]; first compound 0.1265 µM
  relative viability: 0.247
[23]; first compound 0.4 µM
  relative viability: 0.262
[23]; first compound 1.265 µM
  relative viability: 0.266
[23]; first compound 4 µM
  relative viability: 0.235
